Measurements: patent US20050080027A1, “Optimized production of viral vectors derived from paroviruses in packaging and production cells by hsv infection or treatment with dna methylation inhibitors” (priority 2001, published 2005)

Test system: HeLa t-derived AAV producer cells
Experiment: Production of rAAV-(B7.2/GM-CSF) in producer cells using different inhibitors or helper viruses (transducing rAAV titer / AAV packaging efficiency)
Assay type: cell-based
Details: AdV MOI 10 alone or with 50 mM Na butyrate, 3 μM trichostatin A or 3 μM 5-azacytidine, or HSV-1 MOI 10 as helper virus, three days after infection
From the text: The use, according to the invention, of the DNA methylation inhibitor leads to an increase in packaging efficiency to a level of at least 10^6, especially 10^7, preferably 10^8, in particular 10^9, transducing particles/ml of crude lyzate or of at least 10^10, especially 10^11, preferably 10^12, in particular 10^13, genomic particles/ml of crude lyzate. This corresponds to 10^5 to 10^8 genomic particles per sown cell. The packaging efficiency can be determined indirectly by using suitable cell lines to determine the transducing AAV titer. While this was effected specifically in this present case by measuring the B7.2-positive cells by fluorescence-labeling B7.2 and counting by means of FACS analysis, another common protein detection method can be used in the case of other transgenes. The transducing titer depends on the detection method and on the cell type employed, which means that it is necessary to select suitable cells when choosing the system for detecting the corresponding parvovirus or AAV serotype, for example HeLa cells in the case of AAV-2. The genomic titer is independent of the cell type. The genomic titer can be ascertained by means of real-time PCR, for example as described by Veldwijk M R et al. (2002) Mol. Ther. 6:272-8.
AdV was administered either alone or in combination with 50 mM Na butyrate (But), 3 μM trichostatin A (TSA) or 3 μM 5-azacytidine (Aza) (Sigma, Deisenhofen). “Standard” means transient cotransfection of HeLa cells with pAAV-(B7.2/GM-CSF) and the AAV-2 rep/cap helper plasmid and infection with adenovirus (AdV) (MOI 10); harvesting, 3 days after infection;
rAAV-(B7.2/GM-CSF) was initially prepared using producer cell lines (e.g. 1×10^6 cells sown in a 6 cm diameter cell culture dish, with the cells being sown 1 day before the infection) by infecting with adenovirus (multiplicity of infection, MOI 10). […] After 72 hours, the lyzates were prepared by freeze/thaw lysis and freed from the cell debris. Adenovirus […] HSV-1 was heat-inactivated at 56° C. […]

SMILES | AAV packaging efficiency (yield of transducing rAAV particles)
CCCC(=O)[O-].[Na+] [But, Na butyrate] | did not result in an increase in AAV packaging efficiency
Nc1ncn([C@@H]2O[C@H](CO)[C@@H](O)[C@H]2O)c(=O)n1 [Aza, 5-azacytidine] | restore this AAV packaging efficiency
CC(/C=C/C(=O)NO)=C\[C@@H](C)C(=O)c1ccc(N(C)C)cc1 [TSA, trichostatin A] | did not result in an increase in AAV packaging efficiency
